Where two headings read alike, the source gives them in different places. One block for each compound: values may come before it.
Columns and labels:
[1] = system: MM-1 cells; conditions: 17-AAG treated MM-1 cells; Mitsiades et al. 2006; cited from earlier work
[2] = system: Bortezomib refractory multiple myeloma cell lines; conditions: Mitsiades et al. 2006; cited from earlier work
[3] = Effect of surfactant (polysorbate 80, Tween) on solubility in phosphate buffer pH 7.2 (Example 6); assay type: physicochemical; conditions: for increase in solubility on addition of Tween: physiological pH, 1-8 (w/v) Tween versus no Tween; for solubility: sodium phosphate buffer, 200 mM phosphate, read-out: Solubility of L-lactate salt of compound of formula (I)
Description: Solutions of sodium phosphate buffer at a pH of 7.2 were prepared with and without polysorbate 80 (Tween) and the solubilities of the L-lactate salt of the compound of formula (I) were determined.

[4] = Solubility in deionised water, acetate, succinate and citrate buffers (Example 5); assay type: physicochemical; conditions: thermodynamic from solid, read-out: Solubility L-lactate salt of compound of formula (I)
Description: (§1) Aliquots of 1 g of the L-lactate salt of the compound of formula (I) were weighed into individual 20 ml scintillation vials and 10 ml of each buffer was added to a vial. An additional sample was prepared in deionised water. Samples were covered in aluminium foil to protect from light and mixed using a magnetic stirrer overnight.
(§2) The appearance of each sample was recorded. Samples were transferred to centrifuge tubes and centrifuged at 3500rpm for 15 minutes. The samples prepared using the 200 mM buffers were visually free of undissolved material, but were centrifuged in order to make sure that all samples were treated the same. The supernatants were retained for determination of compound of formula (I) by UV and pH measurement.
(§3) Assay by UV: A calibration curve was prepared using the L-lactate salt of the compound of formula (I) dissolved in deionised water and covering the range 0 to 0.10 mg/ml. Absorbance was determined at 286 nm. Samples were diluted as necessary using deionised water and absorbance determined at 286 nm versus a blank. The content of the compound of formula (I) was determined using the standard curve. All UV readings were taken in duplicate.
In a manner analogous to Example 3, formulations were prepared of the L-lactate salt of the compound of formula (I) with acetate, succinate and citrate buffers at different concentrations and at different pH. As shown in the table below, neither the acetate nor citrate buffers were as useful as the phosphate buffer formulation of Example 3, but the succinate buffer gave good L-lactate salt solubility.

[5] = physchem; assay type: physicochemical; conditions: for solubility thermodynamic / solubility: aqueous buffer, thermodynamic from solid, read-out: L-Lactate Salt of Compound of Formula (I) Concentration
Description: Buffers were prepared using monobasic and dibasic salts of sodium phosphate in order to achieve the correct buffer concentrations and pH as follows:
The pH of each buffer was the target pH±0.05. Minor adjustments with small amounts of dilute sodium hydroxide were made to both of the 200 mM buffers to meet this criterion.
as §1, §2, §3

[6] = system: K562 cells; conditions: Gone et al. 2002; cited from earlier work
[7] = system: HSP90; experiment: Hsp90 inhibition (statement); assay type: biochemical; conditions: no value
[8] = system: solid tumours refractory to standard therapy; conditions: cited from earlier work
[9] = system: vemurafenib sensitive and resistant models of melanoma; conditions: Rodriguez-Lopez et al., AACR 2012; cited from earlier work
[10] = system: patients with advanced solid tumours; experiment: Phase I study, Two-Consecutive Day (QDx2) dosing schedule; assay type: in vivo, human
[11] = system: refractory solid tumours; conditions: including three GIST patients; Mahadevan et al. 2012; cited from earlier work

Compound: C=CCNC1=C2C[C@@H](C)C[C@H](OC)[C@H](O)[C@@H](C)/C=C(\C)[C@H](OC(N)=O)[C@@H](OC)/C=C\C=C(/C)C(=O)NC(=CC1=O)C2=O [17-AAG]
cell surface levels of IGF-1R and IL-6R [1]: diminished | proliferation [2]: potently inhibits proliferation

increase in solubility on addition of Tween [3]: 1.5 fold | increase in solubility on addition of Tween ([3]; listed as lactate salt of the compound of formula (I)): approximately 1.5 fold | solubility ([3]; aqueous buffer, pH 7.2, Tween 0 % (w/v)): 21 mg/mL | solubility ([3]; aqueous with cosolvent or surfactant or cyclodextrin, pH 7.2, Tween 1-8 % (w/v)): 33 to 34 mg/mL | solubility ([4]; acetate buffer, aqueous buffer, 50 mM Acetate pH 5.5, pH 4.87): 24.4 mg/mL | solubility ([4]; acetate buffer, aqueous buffer, 50 mM Acetate pH 6.0, pH 5.03): 19.1 mg/mL | solubility ([4]; citrate buffer, aqueous buffer, 50 mM Citrate pH 5.5, pH 5.23): 85.6 mg/mL | solubility ([4]; citrate buffer, aqueous buffer, 50 mM Citrate pH 6.0, pH 5.55): 83.9 mg/mL | solubility ([4]; succinate buffer, aqueous buffer, 50 mM Succinate pH 5.5, pH 5.38): 78.3 mg/mL | solubility ([4]; succinate buffer, aqueous buffer, 50 mM Succinate pH 6.0, pH 5.69): 78.3 mg/mL | solubility ([4]; succinate buffer, aqueous buffer, 100 mM Succinate pH 6.0, pH 5.76): 89.9 mg/mL | solubility ([4]; succinate buffer, pH 5.3, aqueous buffer, 100 mM Succinate pH 5.5, pH 5.30): 89.2 mg/mL | solubility ([4]; Deionised water, pH 5.52): 59.5 mg/mL | solubility thermodynamic ([5]; sodium phosphate buffer 50 mM/pH 5.0, pH of supernatant 5.13): 77.3 mg/mL | solubility thermodynamic ([5]; sodium phosphate buffer 50 mM/pH 5.5, pH of supernatant 5.18): 75.9 mg/mL | solubility ([5]; sodium phosphate buffer 200 mM/pH 5.0 (fifth line of table), pH of supernatant 4.99): ≥ 95.7 mg/mL | solubility ([5]; sodium phosphate buffer 200 mM/pH 5.5, pH of supernatant 5.08): ≥ 94.8 mg/mL | L-Lactate Salt of Compound of Formula (I) Concentration ([5]; sodium phosphate buffer 100 mM/pH 5.5, pH of supernatant 5.10): 86.3 mg/mL | L-Lactate Salt of Compound of Formula (I) Concentration ([5]; sodium phosphate buffer 200 mM/pH 5.0 (third line of table), pH of supernatant 5.05): 89.0 mg/mL
Compound: CC(C)c1cc(C(=O)N2Cc3ccc(CN4CCN(C)CC4)cc3C2)c(O)cc1O.C[C@H](O)C(=O)O [(2,4-Dihydroxy-5-isopropyl-phenyl)-[5-(4-methyl-piperazin-1-ylmethyl)-1,3-dihydro-isoindol-2-yl]-methanone L-lactate salt]

Compound: Cc1ccc(NC(=O)c2ccc(CN3CCN(C)CC3)cc2)cc1Nc1nccc(-c2cccnc2)n1 [Gleevec]
apoptosis [6]: induces apoptosis

Compound: CC(C)c1cc(C(=O)N2Cc3ccc(CN4CCN(C)CC4)cc3C2)c(O)cc1O [compound of formula (I), (2,4-Dihydroxy-5-isopropyl-phenyl)-[5-(4-methyl-piperazin-1-ylmethyl)-1,3-dihydro-isoindol-2-yl]-methanone]
HSP90 inhibition [7]: potent HSP90 inhibitor | PET scan, metabolic activity of the tumour ([8]; GIST patient, 220 mg/m^2 weekly, before and after treatment, Shapiro 2011): substantial reduction in the metabolic activity of the tumour | stable disease for beyond 2 cycles of treatment ([8]; twice weekly schedule, further patients, Shapiro et al. 2010): five of the original twenty one patients | stable disease for at least six months ([8]; twice weekly schedule, one melanoma, one thyroid cancer, Shapiro et al. 2010): two of the original twenty one patients | efficacy in melanoma models [9]: effective | tolerability [10]: well tolerated | objective and durable partial response and stable disease [11]: five patients

Source: patent US20180169117A1, “PHARMACEUTICAL FORMULATION COMPRISING A SUBSTITUTED PHENYL - (1,3-DIHYDRO-ISOINDOL-2-YL) - METHANONE” (OTSUKA PHARMACEUTICAL CO., LTD., priority 2014, published 2018)
